Measured values as given in patent US20080312255A1 (ASTRAZENECA AB, priority 2007, published 2008).

These compounds were tested against S. aureus GyrB ATPase (Staphylococcus aureus, UniProt P0A0K8) (assay: S. aureus GyrB ATPase inhibition (ammonium molybdate/malachite green phosphate detection)). Settings: compound concentration of 1 μM.
Type: biochemical
Summary of the method: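 E. coli GyrA and S. aureus GyrB (250 pM each) with sheared salmon sperm DNA and 250 μM ATP, pH 7.5 Hepes buffer. Released phosphate detected by malachite green/ammonium molybdate at 650 nm; percent inhibition at 1 μM compound unless noted, normalized to 2% DMSO (0%) and EDTA (100%) controls.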

Sequence of S. aureus GyrB ATPase (P0AES4 whole entry): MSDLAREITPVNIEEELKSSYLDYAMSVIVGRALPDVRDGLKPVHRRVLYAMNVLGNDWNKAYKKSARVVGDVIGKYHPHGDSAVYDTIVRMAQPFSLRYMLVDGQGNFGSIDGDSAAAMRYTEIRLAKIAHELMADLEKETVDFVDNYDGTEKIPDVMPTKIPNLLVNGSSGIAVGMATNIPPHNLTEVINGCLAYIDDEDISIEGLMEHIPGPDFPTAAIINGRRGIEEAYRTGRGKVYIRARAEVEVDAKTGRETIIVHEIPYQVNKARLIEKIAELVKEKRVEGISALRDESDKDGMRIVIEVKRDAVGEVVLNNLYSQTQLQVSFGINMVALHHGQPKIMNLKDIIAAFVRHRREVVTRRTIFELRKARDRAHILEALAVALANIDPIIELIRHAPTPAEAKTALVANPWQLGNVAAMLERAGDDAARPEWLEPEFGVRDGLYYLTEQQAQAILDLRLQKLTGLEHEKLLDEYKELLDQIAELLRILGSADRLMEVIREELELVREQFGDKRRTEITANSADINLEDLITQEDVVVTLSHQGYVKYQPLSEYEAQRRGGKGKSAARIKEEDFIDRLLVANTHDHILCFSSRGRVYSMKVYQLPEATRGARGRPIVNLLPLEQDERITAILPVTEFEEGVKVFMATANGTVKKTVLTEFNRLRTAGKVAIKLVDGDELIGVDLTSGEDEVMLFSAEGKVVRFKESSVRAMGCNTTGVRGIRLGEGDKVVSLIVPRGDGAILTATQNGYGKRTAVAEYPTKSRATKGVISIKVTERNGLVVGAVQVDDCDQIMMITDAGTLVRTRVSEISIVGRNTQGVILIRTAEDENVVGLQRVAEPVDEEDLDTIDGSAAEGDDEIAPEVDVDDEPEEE
Sequence of S. aureus GyrB ATPase (P0A0K8 whole entry): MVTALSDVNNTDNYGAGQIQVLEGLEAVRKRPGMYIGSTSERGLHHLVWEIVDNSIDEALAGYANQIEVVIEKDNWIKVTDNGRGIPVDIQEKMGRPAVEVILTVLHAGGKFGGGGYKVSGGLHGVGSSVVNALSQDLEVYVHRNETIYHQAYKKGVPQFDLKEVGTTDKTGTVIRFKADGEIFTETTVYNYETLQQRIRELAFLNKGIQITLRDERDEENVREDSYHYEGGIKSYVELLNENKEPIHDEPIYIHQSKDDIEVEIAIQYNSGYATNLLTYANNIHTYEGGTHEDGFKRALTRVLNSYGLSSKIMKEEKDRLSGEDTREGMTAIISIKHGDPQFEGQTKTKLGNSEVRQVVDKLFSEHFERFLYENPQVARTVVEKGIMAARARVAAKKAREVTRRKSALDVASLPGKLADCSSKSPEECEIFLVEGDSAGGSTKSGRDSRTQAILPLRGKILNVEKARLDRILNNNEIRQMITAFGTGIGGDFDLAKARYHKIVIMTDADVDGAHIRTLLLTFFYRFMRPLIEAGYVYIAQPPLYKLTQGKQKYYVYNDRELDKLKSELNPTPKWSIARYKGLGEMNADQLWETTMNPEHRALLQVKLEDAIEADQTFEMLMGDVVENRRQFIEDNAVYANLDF

Compound	inhibition at 1 µM [%]
Cc1[nH]c(C(=O)N[C@@H]2CCN(c3nc(-c4ncccc4F)c(C(=O)O)s3)C[C@@H]2F)c(Cl)c1Cl [Example 119, 2-((3S,4R)-4-(3,4-dichloro-5-methyl-1H-pyrrole-2-carboxamido)-3-fluoropiperidin-1-yl)-4-(3-fluoropyridin-2-yl)thiazole-5-carboxylic acid]	79.4
CO[C@H]1CN(c2nc(-c3cn(C)nn3)c(C(=O)O)s2)CC[C@H]1NC(=O)c1[nH]c(C)c(Cl)c1C#N [Example 120, 2-((3S,4R)-4-(4-chloro-3-cyano-5-methyl-1H-pyrrole-2-carboxamido)-3-methoxypiperidin-1-yl)-4-(1-methyl-1H-1,2,3-triazol-4-yl)thiazole-5-carboxylic acid]	104
CO[C@H]1CN(c2nc(-c3ncnn3C)c(C(=O)O)s2)CC[C@H]1NC(=O)c1[nH]c(C)c(Cl)c1C#N [Example 121, 2-((3S,4R)-4-(4-chloro-3-cyano-5-methyl-1H-pyrrole-2-carboxamido)-3-methoxypiperidin-1-yl)-4-(1-methyl-1H-1,2,4-triazol-5-yl)thiazole-5-carboxylic acid]	103
CO[C@H]1CN(c2nc(-c3ncccn3)c(C(=O)O)s2)CC[C@H]1NC(=O)c1[nH]c(C)c(Cl)c1C#N [Example 122, 2-((3S,4R)-4-(4-chloro-3-cyano-5-methyl-1H-pyrrole-2-carboxamido)-3-methoxypiperidin-1-yl)-4-(pyrimidin-2-yl)thiazole-5-carboxylic acid]	103
CO[C@H]1CN(c2nc(-c3ncccc3F)c(C(=O)O)s2)CC[C@H]1NC(=O)c1[nH]c(C)c(Cl)c1C#N [Example 123, 2-((3S,4R)-4-(4-chloro-3-cyano-5-methyl-1H-pyrrole-2-carboxamido)-3-methoxypiperidin-1-yl)-4-(3-fluoropyridin-2-yl)thiazole-5-carboxylic acid]	104
CO[C@H]1CN(c2nc(-c3cnc(C)cn3)c(C(=O)O)s2)CC[C@H]1NC(=O)c1[nH]c(C)c(Cl)c1C#N [Example 124, 2-((3S,4R)-4-(4-chloro-3-cyano-5-methyl-1H-pyrrole-2-carboxamido)-3-methoxypiperidin-1-yl)-4-(5-methylpyrazin-2-yl)thiazole-5-carboxylic acid]	104
CO[C@H]1CN(c2nc(-c3cn(C)cn3)c(C(=O)O)s2)CC[C@H]1NC(=O)c1[nH]c(C)c(Cl)c1C#N [Example 125, 2-((3S,4R)-4-(4-chloro-3-cyano-5-methyl-1H-pyrrole-2-carboxamido)-3-methoxypiperidin-1-yl)-4-(1-methyl-1H-imidazol-4-yl)thiazole-5-carboxylic acid]	103
Cc1[nH]c(C(=O)N[C@@H]2CCN(c3nc(-c4ncnn4C)c(C(=O)O)s3)C[C@@H]2OCc2ccccc2)c(Cl)c1Cl [Example 141, 2-[(3S,4R)-3-(benzyloxy)-4-{[(3,4-dichloro-5-methyl-1H-pyrrol-2-yl)carbonyl]amino}piperidin-1-yl]-4-(1-methyl-1H-1,2,4-triazol-5-yl)-1,3-thiazole-5-carboxylic acid]	116
COCCn1ccnc1-c1nc(N2CC[C@@H](NC(=O)c3[nH]c(C)c(Cl)c3Cl)[C@@H](OCc3ccccc3)C2)sc1C(=O)O [Example 143, 2-[(3S,4R)-3-(benzyloxy)-4-{[(3,4-dichloro-5-methyl-1H-pyrrol-2-yl)carbonyl]amino}piperidin-1-yl]-4-[1-(2-methoxyethyl)-1H-imidazol-2-yl]-1,3-thiazole-5-carboxylic acid]	98.8
Cc1[nH]c(C(=O)N[C@@H]2CCN(c3nc(-c4ncccc4F)c(C(=O)O)s3)C[C@@H]2OCc2ccccc2)c(Cl)c1Cl [Example 144, 2-[(3S,4R)-3-(benzyloxy)-4-{[(3,4-dichloro-5-methyl-1H-pyrrol-2-yl)carbonyl]amino}piperidin-1-yl]-4-(3-fluoropyridin-2-yl)-1,3-thiazole-5-carboxylic acid]	114
Cc1[nH]c(C(=O)N[C@@H]2CCN(c3nc(-c4cnccn4)c(C(=O)O)s3)C[C@@H]2OCc2ccccc2)c(Cl)c1Cl [Example 145, 2-[(3S,4R)-3-(benzyloxy)-4-{[(3,4-dichloro-5-methyl-1H-pyrrol-2-yl)carbonyl]amino}piperidin-1-yl]-4-(pyrazin-2-yl)-1,3-thiazole-5-carboxylic acid]	113
Cc1[nH]c(C(=O)N[C@@H]2CCN(c3nc(-c4ncnn4C)c(C(=O)O)s3)C[C@@H]2OCc2ccccc2)cc1Cl [Example 146, 2-[(3S,4R)-3-(benzyloxy)-4-{[(4-chloro-5-methyl-1H-pyrrol-2-yl)carbonyl]amino}piperidin-1-yl]-4-(1-methyl-1H-1,2,4-triazol-5-yl)-1,3-thiazole-5-carboxylic acid]	116
COCCn1ccnc1-c1nc(N2CC[C@@H](NC(=O)c3cc(Cl)c(C)[nH]3)[C@@H](OCc3ccccc3)C2)sc1C(=O)O [Example 148, 2-[(3S,4R)-3-(benzyloxy)-4-{[(4-chloro-5-methyl-1H-pyrrol-2-yl)carbonyl]amino}piperidin-1-yl]-4-[1-(2-methoxyethyl)-1H-imidazol-2-yl]-1,3-thiazole-5-carboxylic acid]	99.9
Cc1[nH]c(C(=O)N[C@@H]2CCN(c3nc(-c4ncccc4F)c(C(=O)O)s3)C[C@@H]2OCc2ccccc2)cc1Cl [Example 149, 2-[(3S,4R)-3-(benzyloxy)-4-{[(4-chloro-5-methyl-1H-pyrrol-2-yl)carbonyl]amino}piperidin-1-yl]-4-(3-fluoropyridin-2-yl)-1,3-thiazole-5-carboxylic acid]	103
Cc1[nH]c(C(=O)N[C@@H]2CCN(c3nc(-c4cnccn4)c(C(=O)O)s3)C[C@@H]2OCc2ccccc2)cc1Cl [Example 150, 2-[(3S,4R)-3-(benzyloxy)-4-{[(4-chloro-5-methyl-1H-pyrrol-2-yl)carbonyl]amino}piperidin-1-yl]-4-(pyrazin-2-yl)-1,3-thiazole-5-carboxylic acid]	102
Cc1[nH]c(C(=O)N[C@@H]2CCN(c3nc(-c4ncnn4C)c(C(=O)O)s3)C[C@@H]2OCc2ccccc2)c(C#N)c1Cl [Example 151, 2-[(3S,4R)-3-(benzyloxy)-4-{[(4-chloro-3-cyano-5-methyl-1H-pyrrol-2-yl)carbonyl]amino}piperidin-1-yl]-4-(1-methyl-1H-1,2,4-triazol-5-yl)-1,3-thiazole-5-carboxylic acid]	115
COCCn1ccnc1-c1nc(N2CC[C@@H](NC(=O)c3[nH]c(C)c(Cl)c3C#N)[C@@H](OCc3ccccc3)C2)sc1C(=O)O [Example 153]	98.6
Cc1[nH]c(C(=O)N[C@@H]2CCN(c3nc(-c4ncccc4F)c(C(=O)O)s3)C[C@@H]2OCc2ccccc2)c(C#N)c1Cl [Example 154, 2-[(3S,4R)-3-(benzyloxy)-4-{[(4-chloro-3-cyano-5-methyl-1H-pyrrol-2-yl)carbonyl]amino}piperidin-1-yl]-4-(3-fluoropyridin-2-yl)-1,3-thiazole-5-carboxylic acid]	112
Cc1[nH]c(C(=O)N[C@@H]2CCN(c3nc(-c4cnccn4)c(C(=O)O)s3)C[C@@H]2OCc2ccccc2)c(C#N)c1Cl [Example 155, 2-[(3S,4R)-3-(benzyloxy)-4-{[(4-chloro-3-cyano-5-methyl-1H-pyrrol-2-yl)carbonyl]amino}piperidin-1-yl]-4-(pyrazin-2-yl)-1,3-thiazole-5-carboxylic acid]	110
